Species on record: Rattus norvegicus
Experiment: Open TG-GATES - Regimen: Single
Type: toxicity, organism-based, Sprague-Dawley
Set-up: regimen Single, gender Male, age 6 weeks
Conditions: in vivo, po, 20 mg/kg, route gavage, dose level Low; for APTT / Bas / Eos / Fbg / Hb / Ht / Lym / MCH / MCHC / MCV / Mono / Neu / PT / Plat / RBC / Ret / WBC: tissue Blood; for KIDNEY_L / KIDNEY_R / KIDNEY_TOTAL: tissue Kidney; for LIVER: tissue Liver; for A/G / ALP / ALT / AST / BUN / CRE / Ca / Cl / DBIL / GLC / IP / K / LDH / Na / PL / RALB / TBIL / TC / TG / TP / gamma-GTP: tissue Plasma

For `CC(CN1c2ccccc2Sc2ccccc21)N(C)C` (configuration not stated) [PROMETHAZINE], the TERMINAL_BW (3 h) was 208 g, the APTT (3 h) was 23.7 s and the Bas (3 h) was 0%. For the same compound, the Eos (3 h) was 0.6%, the Fbg (3 h) was 325.8 mg/dL and the Hb (3 h) was 13.5 g/dL. It also gave a Ht (3 h) of 41.2%, a Lym (3 h) of 81.4% and an MCH (3 h) of 20.7 pg. It also gave an MCHC (3 h) of 32.7%, an MCV (3 h) of 63.3 fL and a Mono (3 h) of 2.2%. It also gave a Neu (3 h) of 15.4%, a PT (3 h) of 16.4 s and a Plat (3 h) of 114.7 x10_4/uL. For the same compound, the RBC (3 h) was 651.2 x10_4/ul, the Ret (3 h) was 8.2% and the WBC (3 h) was 78 x10_2/uL. It also gave a KIDNEY_L (3 h) of 0.9 g, a KIDNEY_R (3 h) of 0.9 g and a KIDNEY_TOTAL (3 h) of 1.8 g. The LIVER (3 h) was 9.2 g, the A/G (3 h) was 1.2 and the ALP (3 h) was 1475 IU/L. The ALT (3 h) was 53.2 IU/L, the AST (3 h) was 73.6 IU/L and the BUN (3 h) was 10.6 mg/dL. It also gave a CRE (3 h) of 0.2 mg/dL, a Ca (3 h) of 10.5 mg/dL and a Cl (3 h) of 105.8 meq/L. It also gave a DBIL (3 h) of 0.018 mg/dL, a GLC (3 h) of 177.8 mg/dL and an IP (3 h) of 9.1 mg/dL. For the same compound, the K (3 h) was 4.3 meq/L, the LDH (3 h) was 202.2 IU/L and the Na (3 h) was 142.4 meq/L. For the same compound, the PL (3 h) was 140.2 mg/dL, the RALB (3 h) was 2.9 g/dL and the TBIL (3 h) was 0.02 mg/dL. For the same compound, the TC (3 h) was 82 mg/dL, the TG (3 h) was 60.4 mg/dL and the TP (3 h) was 5.4 g/dL. The gamma-GTP (3 h) was 1.2 IU/L, the TERMINAL_BW (6 h) was 211.9 g and the APTT (6 h) was 22.9 s. For the same compound, the Bas (6 h) was 0%, the Eos (6 h) was 0.6% and the Fbg (6 h) was 315 mg/dL. For the same compound, the Hb (6 h) was 13.2 g/dL, the Ht (6 h) was 40% and the Lym (6 h) was 83.4%. It also gave an MCH (6 h) of 20.5 pg, an MCHC (6 h) of 33.1% and an MCV (6 h) of 62.1 fL. It also gave a Mono (6 h) of 2.2%, a Neu (6 h) of 13.2% and a PT (6 h) of 16.9 s. It also gave a Plat (6 h) of 118.2 x10_4/uL, an RBC (6 h) of 644.8 x10_4/ul and a Ret (6 h) of 7.8%. For the same compound, the WBC (6 h) was 108.7 x10_2/uL, the KIDNEY_L (6 h) was 0.9 g and the KIDNEY_R (6 h) was 1 g. For the same compound, the KIDNEY_TOTAL (6 h) was 1.9 g, the LIVER (6 h) was 9 g and the A/G (6 h) was 1.3. It also gave an ALP (6 h) of 1313.4 IU/L, an ALT (6 h) of 41.2 IU/L and an AST (6 h) of 72.2 IU/L. It also gave a BUN (6 h) of 10.4 mg/dL, a CRE (6 h) of 0.2 mg/dL and a Ca (6 h) of 10.9 mg/dL. For the same compound, the Cl (6 h) was 105.4 meq/L, the DBIL (6 h) was 0.014 mg/dL and the GLC (6 h) was 178.8 mg/dL. For the same compound, the IP (6 h) was 9.7 mg/dL, the K (6 h) was 4.3 meq/L and the LDH (6 h) was 161 IU/L. It also gave a Na (6 h) of 141.4 meq/L, a PL (6 h) of 131.2 mg/dL and an RALB (6 h) of 3.1 g/dL. It also gave a TBIL (6 h) of 0.03 mg/dL, a TC (6 h) of 76.2 mg/dL and a TG (6 h) of 69.8 mg/dL. The TP (6 h) was 5.5 g/dL, the gamma-GTP (6 h) was 1.2 IU/L and the TERMINAL_BW (9 h) was 213 g. It also gave an APTT (9 h) of 22.5 s, a Bas (9 h) of 0% and an Eos (9 h) of 0.4%. For the same compound, the Fbg (9 h) was 311.4 mg/dL, the Hb (9 h) was 13 g/dL and the Ht (9 h) was 39.2%. For the same compound, the Lym (9 h) was 77.8%, the MCH (9 h) was 20.2 pg and the MCHC (9 h) was 33%. For the same compound, the MCV (9 h) was 61.3 fL, the Mono (9 h) was 2% and the Neu (9 h) was 18.6%. It also gave a PT (9 h) of 16.8 s, a Plat (9 h) of 119.8 x10_4/uL and an RBC (9 h) of 639.8 x10_4/ul. The Ret (9 h) was 7.2%, the WBC (9 h) was 108 x10_2/uL and the KIDNEY_L (9 h) was 1 g. It also gave a KIDNEY_R (9 h) of 1 g, a KIDNEY_TOTAL (9 h) of 1.9 g and an LIVER (9 h) of 8.6 g. The A/G (9 h) was 1.2, the ALP (9 h) was 1421.2 IU/L and the ALT (9 h) was 43.4 IU/L. For the same compound, the AST (9 h) was 69 IU/L, the BUN (9 h) was 11.4 mg/dL and the CRE (9 h) was 0.2 mg/dL. The Ca (9 h) was 10.9 mg/dL, the Cl (9 h) was 105 meq/L and the DBIL (9 h) was 0.008 mg/dL. The GLC (9 h) was 183.8 mg/dL, the IP (9 h) was 10.2 mg/dL and the K (9 h) was 4.3 meq/L. The LDH (9 h) was 152.8 IU/L, the Na (9 h) was 140.8 meq/L and the PL (9 h) was 123.2 mg/dL. For the same compound, the RALB (9 h) was 2.9 g/dL, the TBIL (9 h) was 0.018 mg/dL and the TC (9 h) was 72.2 mg/dL. For the same compound, the TG (9 h) was 51.4 mg/dL, the TP (9 h) was 5.4 g/dL and the gamma-GTP (9 h) was 1.4 IU/L. It also gave a TERMINAL_BW (24 h) of 220.8 g, an APTT (24 h) of 22.2 s and a Bas (24 h) of 0%. For the same compound, the Eos (24 h) was 0.8%, the Fbg (24 h) was 317.2 mg/dL and the Hb (24 h) was 13.4 g/dL. For the same compound, the Ht (24 h) was 39.8%, the Lym (24 h) was 79.8% and the MCH (24 h) was 20.8 pg. It also gave an MCHC (24 h) of 33.6%, an MCV (24 h) of 62 fL and a Mono (24 h) of 2.4%. The Neu (24 h) was 16.4%, the PT (24 h) was 16.6 s and the Plat (24 h) was 117.2 x10_4/uL. It also gave an RBC (24 h) of 643.4 x10_4/ul, a Ret (24 h) of 7.2% and a WBC (24 h) of 125.3 x10_2/uL. For the same compound, the KIDNEY_L (24 h) was 0.9 g, the KIDNEY_R (24 h) was 0.9 g and the KIDNEY_TOTAL (24 h) was 1.9 g. The LIVER (24 h) was 10.1 g, the A/G (24 h) was 1.3 and the ALP (24 h) was 1645.6 IU/L. The ALT (24 h) was 49.8 IU/L, the AST (24 h) was 76 IU/L and the BUN (24 h) was 17.4 mg/dL. It also gave a CRE (24 h) of 0.2 mg/dL, a Ca (24 h) of 11 mg/dL and a Cl (24 h) of 106 meq/L. For the same compound, the DBIL (24 h) was 0 mg/dL, the GLC (24 h) was 188 mg/dL and the IP (24 h) was 6.8 mg/dL. For the same compound, the K (24 h) was 4.1 meq/L, the LDH (24 h) was 154 IU/L and the Na (24 h) was 142.6 meq/L. The PL (24 h) was 146.2 mg/dL, the RALB (24 h) was 3.1 g/dL and the TBIL (24 h) was 0.002 mg/dL. For the same compound, the TC (24 h) was 78.2 mg/dL, the TG (24 h) was 109.2 mg/dL and the TP (24 h) was 5.5 g/dL. For the same compound, the gamma-GTP (24 h) was 1.6 IU/L.
